Columns and labels:
fever = settings: oral delivery; cited from earlier work
headache = assay: Inventors' observation: topical NSAID formulations in treatment of a headache; assay type: in vivo, human; settings: applied to tender spot or area superficial to carotid, temporal and/or vertebral artery
Excerpt: Especially preferred compositions include a xanthine derivative in a concentration of about 4% (wt) to 70% (wt) and ketoprofen in a concentration of about 0.5% (wt) to 50% (wt). With respect to the xanthine derivative, the same considerations as described above apply. Furthermore, such particularly preferred compositions may be formulated in a lecithin-containing formulation or a pluronic-lecithin-organogel formulation (supra). It should be especially recognized, that compositions including a xanthine derivative or an NSAID have generally been described in the art. However, the inventors observed that formulations including an NSAID other than Ketoprofen generally fail to provide relief in treatment of a headache, when topically applied to a person (either to a tender spot, or to an area superficial to a carotid artery, a temporal artery and/or a vertebral artery). It is therefore a surprising result that Ketoprofen is the only NSAID effective in treatment of a headache when used in protocols according to the inventive subject matter (see also examples). While not wishing to be bound by a particular hypothesis or theory, the inventors contemplate that the effect of Ketoprofen may be at least in part mediated by a muscle-relaxant effect rather than via a suppressive effect in inflammation.

Compound | time to achieve sufficient plasma concentration to lower the fever (fever) | relief in treatment of a headache when topically applied (headache)
CC(=O)Nc1ccc(O)cc1 [Acetaminophen] | at least 20 minutes | 
CC(C(=O)O)c1cccc(C(=O)c2ccccc2)c1 (centres unmarked) [Ketoprofen, 2-(meta-benzoylphenyl)pro-pionic acid] |  | effective
